# Like-named read-outs stand apart in the source and are kept apart here.
# Tests used:
# [1] = tested on: transplanted tumor of human non-small cell lung cancer cell H1299
# Experimental: (§1) Then cell concentration was adjusted to 1×10^7/ml with matrigel, then each nude mouse was inoculated subcutaneously with 0.2 ml of cells at its right armpit and recorded as the first day of inoculation. When the tumor grows to be greater than or equal to 100 mm^3, the mice were randomly divided into 11 groups with 6 mice in each group: isovaleryl spiramycin I groups with doses of 25, 50 and 100 mg/kg, isovaleryl spiramycin II groups with doses of 25, 50 and 100 mg/kg, and isovaleryl spiramycin III groups with doses of 25, 50 and 100 mg/kg. Each group was continuously administered intragastrically for 30 days with a dose of 20 ml/kg. The mice were sacrificed the next day after drug withdrawal and the indicators were tested. The long diameter and short diameter of the tumor, and the body weight of each mouse were recorded every 3 days from drug administration to nude mouse sacrifice.
# (§2) The body weight of the nude mice and the long diameter (a) and short diameter (b) of the transplanted tumor were measured every 3 days, and the tumor volume (v), relative tumor volume (RTV) and relative tumor proliferation rate (T/C) are calculated respectively according to the following formulas, wherein V=a×b^2/2; RTV=V/V0 (V0 is the tumor volume before administration, V is the tumor volume before sacrifice), and T/C (%)=treatment group RTV/model control group RTV×100%.
# (§3) Each mouse was weighed and sacrificed. After the tumor was completely stripped off from the body of the mouse, the non-tumor tissues such as blood stains and fat were removed to weigh the tumor and calculate the tumor growth inhibition rate. The average tumor weight of each group of mice is used as an indicator of efficacy. Tumor growth inhibition rate (%)=(1−the average tumor weight of the treatment group/the average tumor weight of the model group)×100%.
# [2] = tested on: transplanted tumor of human breast cancer cell MDA-MB-231; test: MDA-MB-231 transplanted tumor in nude mice
# Experimental: as §1, with “group: a model group, a cyclophosphamide group,” for “group:”
# as §2, §3
# [3] = tested on: transplanted tumor of human prostate cancer cell PC3; test: PC3 transplanted tumor in nude mice
# Experimental: as §1, with “group: a model group, a cyclophosphamide group,” for “group:”
# as §2, §3
# [4] = tested on: transplanted tumor of human bladder cancer cell T-24; test: T-24 transplanted tumor in nude mice; conditions: for Tumor Volume (mm3) (d30): d 30
# Experimental: as §1, §2, §3
# [5] = H1299, 25 mg/kg (low dose) i.g. 30 days
# [6] = H1299, 50 mg/kg (medium dose) i.g. 30 days
# [7] = H1299, 100 mg/kg (high dose) i.g. 30 days
# [8] = MDA-MB-231, 25 mg/kg (low dose) i.g. 30 days
# [9] = MDA-MB-231, 50 mg/kg (medium dose) i.g. 30 days
# [10] = MDA-MB-231, 100 mg/kg (high dose) i.g. 30 days
# [11] = PC3, 25 mg/kg (low dose) i.g. 30 days
# [12] = PC3, 50 mg/kg (medium dose) i.g. 30 days
# [13] = PC3, 100 mg/kg (high dose) i.g. 30 days
# [14] = T-24, high dose (100 mg/kg in method) i.g. 30 days
# [15] = T-24, low dose (25 mg/kg in method) i.g. 30 days
# [16] = T-24, medium dose (50 mg/kg in method) i.g. 30 days
structure (smiles),measurement,setting,value
"COC1C(OC(C)=O)CC(=O)OC(C)CC=CC=CC(OC2CCC(N(C)C)C(C)O2)C(C)CC(CC=O)C1OC1OC(C)C(OC2CC(C)(O)C(OC(=O)CC(C)C)C(C)O2)C(N(C)C)C1O (centres unmarked) [Isovaleryl spiramycin II, isovaleryl spiramycin II]",Inhibition Rate (tumor growth inhibition rate),[1]; [5],17.32%
same,Relative Tumor Proliferation Rate (T/C),[1]; [5],83.01%
same,Relative Tumor Volume (RTV),[1]; [5],10.64 ± 0.92
same,Tumor Volume (d 1),[1]; [5],139.13 ± 12.26 mm3
same,Tumor Volume (d 30),[1]; [5],1474.57 ± 104.54 mm3
same,Tumor Weight,[1]; [5],1.44 ± 0.29 g
same,Inhibition Rate (tumor growth inhibition rate),[1]; [6],44.21%
same,Relative Tumor Proliferation Rate (T/C),[1]; [6],46.94%
same,Relative Tumor Volume (RTV),[1]; [6],6.02 ± 1.07
same,Tumor Volume (d 1),[1]; [6],138.94 ± 20.16 mm3
same,Tumor Volume (d 30),[1]; [6],821.57 ± 90.36 mm3
same,Tumor Weight,[1]; [6],0.97 ± 0.16 g
same,Inhibition Rate (tumor growth inhibition rate),[1]; [7],58.37%
same,Relative Tumor Proliferation Rate (T/C),[1]; [7],36.86%
same,Relative Tumor Volume (RTV),[1]; [7],4.72 ± 1.57
same,Tumor Volume (d 1),[1]; [7],136.94 ± 14.60 mm3
same,Tumor Volume (d 30),[1]; [7],634.05 ± 180.18 mm3
same,Tumor Weight,[1]; [7],0.73 ± 0.25 g
same,tumor volume and relative tumor volume compared with the model group,"[1]; H1299, low, medium and high doses, P<0.05",significantly lower
same,mouse weight compared with the model group,"[1]; mouse, in vivo",no significant changes
same,Inhibition Rate (tumor growth inhibition rate),[2]; [8],18.17%
same,Relative Tumor Proliferation Rate (T/C),[2]; [8],80.22%
same,Relative Tumor Volume (RTV),[2]; [8],12.53 ± 1.78
same,Tumor Volume (d 1),[2]; [8],119.72 ± 6.52 mm3
same,Tumor Volume (d 30),[2]; [8],1493.96 ± 171.49 mm3
same,Tumor Weight,[2]; [8],1.90 ± 0.31 g
same,Inhibition Rate (tumor growth inhibition rate),[2]; [9],29.66%
same,Relative Tumor Proliferation Rate (T/C),[2]; [9],58.78%
same,Relative Tumor Volume (RTV),[2]; [9],9.18 ± 2.38
same,Tumor Volume (d 1),[2]; [9],119.07 ± 3.19 mm3
same,Tumor Volume (d 30),[2]; [9],1094.89 ± 291.37 mm3
same,Tumor Weight,[2]; [9],1.63 ± 0.32 g
same,Inhibition Rate (tumor growth inhibition rate),[2]; [10],58.91%
same,Relative Tumor Proliferation Rate (T/C),[2]; [10],30.89%
same,Relative Tumor Volume (RTV),[2]; [10],6.08 ± 1.74
same,Tumor Volume (d 1),[2]; [10],115.89 ± 9.01 mm3
same,Tumor Volume (d 30),[2]; [10],700.44 ± 192.38 mm3
same,Tumor Weight,[2]; [10],0.95 ± 0.42 g
same,tumor volume and relative tumor volume compared with the model group,"[2]; MDA-MB-231, low, medium and high doses, P<0.05",significantly lower
same,mouse weight compared with the model group,"[2]; mouse, in vivo",no significant changes
same,Inhibition Rate (tumor growth inhibition rate),[3]; [11],23.49%
same,Relative Tumor Proliferation Rate (T/C),[3]; [11],83.04%
same,Relative Tumor Volume (RTV),[3]; [11],16.24 ± 6.00
same,Tumor Volume (d 1),[3]; [11],154.86 ± 4.11 mm3
same,Tumor Volume (d 30),[3]; [11],2404.85 ± 672.33 mm3
same,Tumor Weight,[3]; [11],1.44 ± 0.56 g
same,Inhibition Rate (tumor growth inhibition rate),[3]; [12],40.16%
same,Relative Tumor Proliferation Rate (T/C),[3]; [12],60.08%
same,Relative Tumor Volume (RTV),[3]; [12],11.75 ± 3.78
same,Tumor Volume (d 1),[3]; [12],157.25 ± 38.97 mm3
same,Tumor Volume (d 30),[3]; [12],1729.14 ± 128.57 mm3
same,Tumor Weight,[3]; [12],1.13 ± 0.43 g
same,Inhibition Rate (tumor growth inhibition rate),[3]; [13],50.44%
same,Relative Tumor Proliferation Rate (T/C),[3]; [13],44.48%
same,Relative Tumor Volume (RTV),[3]; [13],8.70 ± 2.61
same,Tumor Volume (d 1),[3]; [13],131.11 ± 22.05 mm3
same,Tumor Volume (d 30),[3]; [13],1162.46 ± 495.46 mm3
same,Tumor Weight,[3]; [13],0.93 ± 0.27 g
same,tumor volume and relative tumor volume compared with the model group,"[3]; PC3, low, medium and high doses, P<0.05",significantly lower
same,mouse weight compared with the model group,"[3]; mouse, in vivo",no significant changes
same,Relative Tumor Proliferation Rate (T/C),[4]; [14],46.70%
same,tumor growth inhibition rate,[4]; [14],59.25%
same,Relative Tumor Proliferation Rate (T/C),[4]; [15],81.39%
same,tumor growth inhibition rate,[4]; [15],15.57%
same,tumor volume and relative tumor volume compared with the model group,"[4]; T-24, low, medium and high doses, P<0.05",significantly lower
same,Relative Tumor Proliferation Rate (T/C),[4]; [16],64.89%
same,tumor growth inhibition rate,[4]; [16],41.99%
same,Inhibition Rate (%),[4]; dose 25 mg/kg,15.57%
same,Relative Tumor Proliferation Rate (T/C),[4]; dose 25 mg/kg,81.39%
same,Relative Tumor Volume (RTV),[4]; dose 25 mg/kg,10.75 ± 1.34
same,Tumor Weight,[4]; dose 25 mg/kg,1.58 ± 0.28 g
same,Tumor Volume (mm3) (d 1),[4]; dose 25 mg/kg,132.64 ± 19.75 mm3
same,Tumor Volume (mm3) (d30),[4]; dose 25 mg/kg,1414.36 ± 188.91 mm3
same,Inhibition Rate (%),[4]; dose 50 mg/kg,41.99%
same,Relative Tumor Proliferation Rate (T/C),[4]; dose 50 mg/kg,64.89%
same,Relative Tumor Volume (RTV),[4]; dose 50 mg/kg,8.57 ± 1.31
same,Tumor Weight,[4]; dose 50 mg/kg,1.09 ± 0.42 g
same,Tumor Volume (mm3) (d 1),[4]; dose 50 mg/kg,133.67 ± 5.07 mm3
same,Tumor Volume (mm3) (d30),[4]; dose 50 mg/kg,1142.42 ± 146.91 mm3
same,Inhibition Rate (%),[4]; dose 100 mg/kg,59.25%
same,Relative Tumor Proliferation Rate (T/C),[4]; dose 100 mg/kg,46.70%
same,Relative Tumor Volume (RTV),[4]; dose 100 mg/kg,6.17 ± 1.26
same,Tumor Weight,[4]; dose 100 mg/kg,0.76 ± 0.19 g
same,Tumor Volume (mm3) (d 1),[4]; dose 100 mg/kg,133.57 ± 18.08 mm3
same,Tumor Volume (mm3) (d30),[4]; dose 100 mg/kg,809.94 ± 131.43 mm3
same,mouse weight compared with the model group,"[4]; mouse, in vivo",no significant changes
same,Body Weight (g) (d1),"[4]; mouse, in vivo, 25 mg/kg",19.91 ± 0.28 g
same,Body Weight (g) (d30),"[4]; mouse, in vivo, 25 mg/kg",24.81 ± 2.42 g
same,Body Weight (g) (d1),"[4]; mouse, in vivo, 50 mg/kg",19.74 ± 0.82 g
same,Body Weight (g) (d30),"[4]; mouse, in vivo, 50 mg/kg",25.84 ± 0.73 g
same,Body Weight (g) (d1),"[4]; mouse, in vivo, 100 mg/kg",19.51 ± 0.50 g
same,Body Weight (g) (d30),"[4]; mouse, in vivo, 100 mg/kg",25.92 ± 1.35 g

# Source: patent US20200163984A1, “USE OF ISOVALERYL SPIRAMYCIN I, II AND/OR III IN MANUFACTURING MEDICAMENT FOR TREATING AND/OR PREVENTING TUMOR, AND MEDICAMENT” (SHENYANG FUYANG PHARMACEUTICAL TECHNOLOGY CO., LTD., priority 2017, published 2020)
